This is an account of results in patent publication US6541194B2, “Method for the detection of the presence of chemical species known to inhibit a chemiluminescent reaction” (Neogen Corporation, priority 2000, dated 2003).

In this test the target is T1, luciferase (Photinus pyralis, UniProt P08659).
T1 construct: purchased Analytical Luminescent Laboratories (ALL), Sparks, Md. #2005
In words: luciferin-luciferase chemiluminescent reaction with reactant mixture dried on reagent disc. Format: biochemical. The text has this: As discussed above, the inherent chemical and mechanical stability of the polymeric material is ideally suited for use as a medium on which to load the chemiluminescent reagents for the practice of the present invention. A number of commercial enterprises market luciferin-luciferase reagent kits for use in chemiluminescent reaction assays. One that the inventors have found to be particularly well suited for the practice of the present invention is the “Firelight®” luciferin-luciferase reagent kit provided by Analytical Luminescent Laboratories (ALL) of Sparks, Md. […] This provides for a greater intensity of luminescence, and faster reaction kinetics.
In the preparation of the reagent discs 48, the reactant concentrate is loaded, preferably drop-wise, onto the Merocel® CF50, obtained in pre-sterilized sheets. The coated sheets are then dried at ambient temperatures under a vacuum, and the reagent discs are cut from the sheets in an appropriate size and shape. Alternatively, discs may be cut first and then loaded with appropriate reagent solution. When loaded in such fashion with the reagent mixture, reagent discs, approximately 6 mm in diameter and approximately 1.5 mm in height, carry approximately 0.5 mg of the dried reactant mixture.
It is recognized in the prior art that trehalose will stabilize delicate materials while they are freeze-dried. […]

Structures are written as SMILES.

T1 sequence (P08659 whole entry): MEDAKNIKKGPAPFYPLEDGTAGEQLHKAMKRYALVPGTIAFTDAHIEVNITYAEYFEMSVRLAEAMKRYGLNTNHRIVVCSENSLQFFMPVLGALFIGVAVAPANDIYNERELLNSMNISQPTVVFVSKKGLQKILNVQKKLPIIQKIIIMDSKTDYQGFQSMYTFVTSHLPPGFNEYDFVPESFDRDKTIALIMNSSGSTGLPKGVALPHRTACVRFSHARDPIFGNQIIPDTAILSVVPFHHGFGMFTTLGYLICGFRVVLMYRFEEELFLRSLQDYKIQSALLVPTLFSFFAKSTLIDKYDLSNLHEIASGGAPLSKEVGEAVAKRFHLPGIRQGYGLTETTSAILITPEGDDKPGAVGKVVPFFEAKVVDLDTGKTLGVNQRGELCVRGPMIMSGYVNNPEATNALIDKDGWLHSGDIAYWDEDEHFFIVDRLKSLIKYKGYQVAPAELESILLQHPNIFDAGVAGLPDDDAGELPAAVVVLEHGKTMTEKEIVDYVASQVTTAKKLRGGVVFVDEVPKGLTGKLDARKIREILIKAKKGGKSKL

With `OC[C@H]1O[C@H](O[C@H]2O[C@H](CO)[C@@H](O)[C@H](O)[C@H]2O)[C@H](O)[C@@H](O)[C@@H]1O` [trehalose, a-D-glucopyranosyl-a-D-glucopyranoside], where the note is “6 mm×1.5 mm reagent disc, total loading approximately 4 mg, FIG. 12”, the “observed luminescent intensities versus the same loading of reagents without the trehalose” value was “more than twice”. For the same compound, for the setting “trehalose added to loading solution at levels approaching its saturation solubility”, the “biochemical activity of the luciferase component of the reagent mixture” value was “up to a doubling, or more”.
